Columns and labels:
[1] = tested on: yeast cells overexpressing Cys4; assay: Drug screening in yeast: suppression of methionine auxotrophy (halo of restored growth around filter); format: cell-based, Saccharomyces cerevisiae; conditions: same plate assay; high concentrations = close to the filter
Description: As an example, for the drug screening, yeast cells transformed with p424-GPD and p426-GPD plasmids containing yeast CBS (CYS4) coding sequence were grown in uracil- and tryptophan-free minimal liquid medium (SD-Ura/Trp) overnight at 29°C. The following day, cells were diluted to OD600∼0.2 in fresh medium and grown for 4 hours to reach exponential phase. Then three hundred and fifty microliters of exponentially growing yeast cells overexpressing CYS4, adjusted to an OD600 of 0.5, were spread homogeneously with sterile glass beads (a mix of ∼1.5 and 3 mm diameter) on a square Petri dish (12 cm × 12cm) containing uracil-, tryptophan- and methionine-free minimal agar-based solid medium (SD-UrarTrp/Met). In addition, to get a degree of methionine auxotrophy sufficient to allow an efficient screening, the screening medium was supplemented with serine (2% (w/v)), which is one of CYS4/CBS substrates. Sterile filters (Thermo Fisher similar to those used for antibiograms) were placed on the agar surface, and 2 µl of individual compound from the various chemical libraries were applied to each filter. […]
According to the present invention, it was decided to create a yeast model in which the phenotypical consequences of CBS overexpression may be easily and conveniently monitored in order to get a potential in cellulo high throughput drug screening procedure. […]

DYRK1A = conditions: treatment with EGCG, as reported previously; cited from earlier work

SMILES | toxicity on CYS4-overexpressing cells [1] | cognitive aspects found altered in people with DS (DYRK1A)
CCN(CC)C(=S)SSC(=S)N(CC)CC [DSF, Disulfiram] | toxic at high concentrations | 
O=C(O[C@@H]1Cc2c(O)cc(O)cc2O[C@@H]1c1cc(O)c(O)c(O)c1)c1cc(O)c(O)c(O)c1 [epigallocatechin-3-gallate] |  | can restore some cognitive aspects found altered in people with DS but the gain was limited
